Experimental data published in ChEMBL document CHEMBL5053535, “Design, synthesis and biological evaluation of novel aminopyrazole- and 7-azaindole-based Nek1 inhibitors and their effects on zebrafish kidney development” (Bioorg Med Chem Lett, 2021).
In brackets after ≈: the same amount, converted by molar mass.

Key:
[1] = target: T1, Serine/threonine-protein kinase Nek1 (Homo sapiens) (UniProt Q96PY6); experiment: Inhibition of human NEK1 using myelin basic protein as substrate assessed as residual activity at 10 uM in presence of [gamma-33P]-ATP by radiometric hotspot kinase assay relative to control
T1 sequence (whole entry): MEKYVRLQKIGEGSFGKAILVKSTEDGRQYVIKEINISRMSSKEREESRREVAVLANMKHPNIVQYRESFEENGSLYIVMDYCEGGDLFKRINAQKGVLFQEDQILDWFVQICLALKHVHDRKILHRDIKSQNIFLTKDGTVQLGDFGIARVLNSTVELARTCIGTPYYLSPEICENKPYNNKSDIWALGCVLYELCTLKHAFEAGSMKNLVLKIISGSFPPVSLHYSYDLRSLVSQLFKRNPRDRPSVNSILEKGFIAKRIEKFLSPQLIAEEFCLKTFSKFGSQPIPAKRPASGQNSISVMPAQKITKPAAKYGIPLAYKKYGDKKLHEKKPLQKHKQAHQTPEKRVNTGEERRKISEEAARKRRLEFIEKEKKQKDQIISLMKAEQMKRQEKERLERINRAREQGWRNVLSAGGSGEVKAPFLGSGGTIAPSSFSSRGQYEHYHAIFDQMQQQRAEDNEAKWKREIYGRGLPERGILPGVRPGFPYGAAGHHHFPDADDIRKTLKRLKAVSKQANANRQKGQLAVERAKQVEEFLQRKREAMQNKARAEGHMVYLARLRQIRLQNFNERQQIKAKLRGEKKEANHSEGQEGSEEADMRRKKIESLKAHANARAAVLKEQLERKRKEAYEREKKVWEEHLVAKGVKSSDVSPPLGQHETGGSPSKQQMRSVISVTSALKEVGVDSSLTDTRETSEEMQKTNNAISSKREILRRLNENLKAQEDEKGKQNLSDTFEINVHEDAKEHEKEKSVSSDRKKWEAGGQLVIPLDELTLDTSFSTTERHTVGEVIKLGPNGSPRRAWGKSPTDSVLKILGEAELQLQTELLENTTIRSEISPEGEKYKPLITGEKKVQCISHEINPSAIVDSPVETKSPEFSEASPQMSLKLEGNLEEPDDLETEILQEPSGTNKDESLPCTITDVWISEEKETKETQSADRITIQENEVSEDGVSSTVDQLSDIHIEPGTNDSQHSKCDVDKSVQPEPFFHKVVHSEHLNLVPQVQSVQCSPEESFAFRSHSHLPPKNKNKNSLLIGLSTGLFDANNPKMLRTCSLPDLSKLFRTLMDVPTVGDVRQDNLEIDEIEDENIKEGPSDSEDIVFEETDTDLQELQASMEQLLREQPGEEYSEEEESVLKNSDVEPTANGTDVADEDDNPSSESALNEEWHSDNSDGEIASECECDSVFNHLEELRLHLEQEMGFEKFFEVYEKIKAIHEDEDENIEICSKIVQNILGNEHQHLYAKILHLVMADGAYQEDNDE

[2] = target: T1, Serine/threonine-protein kinase Nek1 (Homo sapiens); experiment: Inhibition of human NEK1 using myelin basic protein as substrate assessed as residual activity at 1 uM in presence of [gamma-33P]-ATP by radiometric hotspot kinase assay relative to control
[3] = target: Wee1-like protein kinase (Homo sapiens) (UniProt P30291); experiment: Inhibition of human recombinant full length WEE1 expressed in insect cells using MBP as substrate assessed as residual activity at 1 uM pretreated for 20 mins followed by [33P]-ATP addition measured after 120 mins by radiometric hotspot kinase assay relative to control; settings: time 140.0 min
Sequence of Wee1-like protein kinase (Homo sapiens) (P30291 whole entry, looked up): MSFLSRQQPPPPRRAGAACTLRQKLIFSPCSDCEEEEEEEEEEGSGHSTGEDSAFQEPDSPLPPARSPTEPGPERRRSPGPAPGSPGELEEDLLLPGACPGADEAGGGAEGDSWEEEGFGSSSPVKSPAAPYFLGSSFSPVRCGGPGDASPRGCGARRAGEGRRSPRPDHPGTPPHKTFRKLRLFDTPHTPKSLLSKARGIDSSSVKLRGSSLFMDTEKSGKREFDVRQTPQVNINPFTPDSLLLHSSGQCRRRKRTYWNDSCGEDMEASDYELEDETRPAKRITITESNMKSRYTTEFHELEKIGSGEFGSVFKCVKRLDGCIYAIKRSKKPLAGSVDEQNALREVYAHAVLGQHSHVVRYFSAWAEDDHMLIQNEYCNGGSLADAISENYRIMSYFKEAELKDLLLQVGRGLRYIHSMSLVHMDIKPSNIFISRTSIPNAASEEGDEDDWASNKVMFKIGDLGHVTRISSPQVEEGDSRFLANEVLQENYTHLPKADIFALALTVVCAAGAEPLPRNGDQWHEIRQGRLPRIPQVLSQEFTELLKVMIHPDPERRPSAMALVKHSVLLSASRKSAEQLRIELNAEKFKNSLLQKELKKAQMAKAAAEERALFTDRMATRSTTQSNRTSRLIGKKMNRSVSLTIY

[4] = Solubility of the compound in DMEM with 1% DMSO by DAD-HPLC based shake flask method; format: physicochemical
[5] = Stability of the compound in DMEM measured after 48 hrs by DAD-HPLC method; format: physicochemical; settings: read-out: Stability
[6] = target: Cyclin-dependent kinase 2/cyclin E1 (Homo sapiens) (UniProt P24864+P24941); experiment: (§1) Inhibition of human recombinant full length C-terminal His6 tagged CDK2/ N-terminal GST-tagged Cyclin E expressed in baculovirus infected Sf21 insect cells using histone H1 as substrate assessed as residual activity at 1 uM pretreated for 20 mins followed by [33P]-ATP addition measured after 120 mins by radiometric hotspot kinase assay relative to control; settings: time 140.0 min
[7] = target: T2, Serine/threonine-protein kinase Nek5 (Homo sapiens) (UniProt Q6P3R8); experiment: Inhibition of human recombinant NEK5 assessed as residual activity at 1 uM pretreated for 20 mins followed by [33P]-ATP addition measured after 120 mins by radiometric hotspot kinase assay relative to control; settings: time 140.0 min
T2 sequence (whole entry): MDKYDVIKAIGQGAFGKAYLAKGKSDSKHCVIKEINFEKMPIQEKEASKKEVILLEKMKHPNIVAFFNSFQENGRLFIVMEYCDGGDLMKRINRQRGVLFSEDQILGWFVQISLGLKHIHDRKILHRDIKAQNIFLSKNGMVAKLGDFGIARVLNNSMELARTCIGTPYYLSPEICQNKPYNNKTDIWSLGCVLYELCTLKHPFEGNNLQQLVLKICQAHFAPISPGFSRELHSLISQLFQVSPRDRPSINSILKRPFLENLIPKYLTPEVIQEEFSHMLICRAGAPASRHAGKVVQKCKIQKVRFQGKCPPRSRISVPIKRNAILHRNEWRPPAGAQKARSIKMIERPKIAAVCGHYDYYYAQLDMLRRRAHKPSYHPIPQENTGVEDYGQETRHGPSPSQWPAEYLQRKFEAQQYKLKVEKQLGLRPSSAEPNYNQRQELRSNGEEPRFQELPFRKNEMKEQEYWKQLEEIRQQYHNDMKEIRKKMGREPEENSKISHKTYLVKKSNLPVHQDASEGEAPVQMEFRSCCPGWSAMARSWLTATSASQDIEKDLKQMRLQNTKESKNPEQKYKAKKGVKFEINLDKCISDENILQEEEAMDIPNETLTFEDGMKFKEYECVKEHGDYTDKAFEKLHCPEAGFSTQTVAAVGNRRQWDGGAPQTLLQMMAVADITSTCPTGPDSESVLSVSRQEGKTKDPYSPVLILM

[8] = target: T3, Serine/threonine-protein kinase Nek1 (Homo sapiens, UniProt Q96PY6); experiment: Inhibition of human NEK1 using myelin basic protein as substrate assessed as residual activity in presence of [gamma-33P]-ATP by radiometric hotspot kinase assay relative to control
T3 sequence (Q96PY6 whole entry): T1 sequence (whole entry)

[9] = Solubility of the compound in E3 medium with 0.2% DMSO by DAD-HPLC based shake flask method; format: physicochemical
[10] = target: Vascular endothelial growth factor receptor 2 (Homo sapiens) (UniProt P35968); experiment: Inhibition of human recombinant C-terminal His6 tagged VEGFR2 (789 to 1356 residues) expressed in baculovirus infected insect cells assessed as residual activity at 1 uM pretreated for 20 mins followed by [33P]-ATP addition measured after 120 mins by radiometric hotspot kinase assay relative to control; settings: time 140.0 min
Sequence of Vascular endothelial growth factor receptor 2 (Homo sapiens) (P35968 whole entry, the tested form may be a part): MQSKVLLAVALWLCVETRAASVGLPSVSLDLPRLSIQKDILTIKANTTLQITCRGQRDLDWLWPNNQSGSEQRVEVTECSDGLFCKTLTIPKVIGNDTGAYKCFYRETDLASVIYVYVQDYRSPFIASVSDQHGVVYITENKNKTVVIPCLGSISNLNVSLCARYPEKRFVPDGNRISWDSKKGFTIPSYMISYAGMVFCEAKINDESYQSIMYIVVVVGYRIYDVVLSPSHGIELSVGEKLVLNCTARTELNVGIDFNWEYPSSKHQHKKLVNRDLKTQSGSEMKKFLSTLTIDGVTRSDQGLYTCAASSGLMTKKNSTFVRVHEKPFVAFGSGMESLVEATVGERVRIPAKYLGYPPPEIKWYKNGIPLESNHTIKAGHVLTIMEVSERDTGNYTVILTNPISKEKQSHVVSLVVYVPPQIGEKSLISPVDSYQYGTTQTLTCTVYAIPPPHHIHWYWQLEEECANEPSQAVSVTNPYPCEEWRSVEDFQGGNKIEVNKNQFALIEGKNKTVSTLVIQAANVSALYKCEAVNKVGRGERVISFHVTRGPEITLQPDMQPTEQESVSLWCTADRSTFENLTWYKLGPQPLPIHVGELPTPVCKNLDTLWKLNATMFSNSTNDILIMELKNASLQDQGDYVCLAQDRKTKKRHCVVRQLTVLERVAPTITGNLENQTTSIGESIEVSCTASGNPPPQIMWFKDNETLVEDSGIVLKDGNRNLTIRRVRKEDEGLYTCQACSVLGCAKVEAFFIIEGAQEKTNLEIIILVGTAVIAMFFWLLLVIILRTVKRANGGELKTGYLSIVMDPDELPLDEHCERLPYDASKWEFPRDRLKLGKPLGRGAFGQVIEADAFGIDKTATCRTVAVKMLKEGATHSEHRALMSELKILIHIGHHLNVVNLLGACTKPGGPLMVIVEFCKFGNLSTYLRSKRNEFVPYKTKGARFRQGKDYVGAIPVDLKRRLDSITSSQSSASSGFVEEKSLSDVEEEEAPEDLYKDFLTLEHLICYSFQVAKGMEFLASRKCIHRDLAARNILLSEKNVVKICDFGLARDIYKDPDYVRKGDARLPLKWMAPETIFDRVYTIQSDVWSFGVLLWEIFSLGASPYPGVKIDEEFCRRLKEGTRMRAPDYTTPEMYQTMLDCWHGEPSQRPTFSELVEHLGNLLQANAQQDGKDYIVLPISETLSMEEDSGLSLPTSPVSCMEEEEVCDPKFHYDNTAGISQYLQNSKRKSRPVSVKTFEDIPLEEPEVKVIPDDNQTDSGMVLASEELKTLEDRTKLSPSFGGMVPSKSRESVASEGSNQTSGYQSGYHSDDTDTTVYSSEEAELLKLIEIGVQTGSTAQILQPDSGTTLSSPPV

[11] = target: T4, Serine/threonine-protein kinase Chk1 (Homo sapiens) (UniProt O14757); experiment: as §1, with “N-terminal His” for “C-terminal His6”, “CHK1” for “CDK2/ N-terminal GST-tagged Cyclin E”, “CHKtide” for “histone H1”; settings: time 140.0 min
T4 sequence (whole entry): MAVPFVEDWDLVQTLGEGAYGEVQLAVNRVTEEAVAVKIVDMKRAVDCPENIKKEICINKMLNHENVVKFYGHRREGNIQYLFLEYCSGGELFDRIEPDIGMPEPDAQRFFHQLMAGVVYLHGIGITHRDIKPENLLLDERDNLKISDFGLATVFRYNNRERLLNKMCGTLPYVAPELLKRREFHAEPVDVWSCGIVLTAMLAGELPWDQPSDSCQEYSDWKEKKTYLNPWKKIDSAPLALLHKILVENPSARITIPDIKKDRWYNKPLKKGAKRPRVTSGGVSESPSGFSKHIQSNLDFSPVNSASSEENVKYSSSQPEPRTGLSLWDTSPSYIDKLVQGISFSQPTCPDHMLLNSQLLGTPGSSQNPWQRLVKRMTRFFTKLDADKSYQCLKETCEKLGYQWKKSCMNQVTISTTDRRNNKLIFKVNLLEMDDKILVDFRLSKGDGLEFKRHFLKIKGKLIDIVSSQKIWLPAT

Danio rerio = species on record: Danio rerio; experiment: Toxicity in zebra fish embryos assessed as reduction in heart beat at 1 uM measured every 24 hrs for 120 hrs; format: organism-based; settings: zebrafish, in vivo

COC(=O)c1cccc(-c2cnc3[nH]ccc3c2)c1
Activity [1]: 44.7%

COC(=O)c1cccc(-c2cnc3[nH]cc(-c4ccc(C)cc4)c3c2)c1
Activity [2]: 47.9%

c1ccc(-c2cnc3[nH]ccc3c2)cc1
Activity [1]: 62.9%

Cc1cc(Nc2ccnc(NC3CC3)n2)n[nH]1
Activity [2]: 95.1%

N#Cc1cccc(-c2cnc3[nH]cc(Cl)c3c2)c1
Activity [2]: > 100%

COC(=O)c1cccc(-c2cnc3[nH]cc(-c4cccc([N+](=O)[O-])c4)c3c2)c1
Activity [2]: 28.5%

COC(=O)c1cccc(-c2cnc3[nH]cc(-c4ccccc4C)c3c2)c1
Activity [2]: 61%

COc1cccc(-c2c[nH]c3ncc(-c4cccc(C#N)c4)cc23)c1
Activity [2]: 41.1%

Cc1cc(Nc2ccnc(Nc3cccc4ccccc34)n2)n[nH]1
Activity [2]: 90.1%

CNC(=O)c1cccc(-c2cnc3[nH]ccc3c2)c1
Activity [1]: 67.2%

COC(=O)c1cccc(-c2cnc3[nH]cc(-c4cccc(C)c4)c3c2)c1
Activity [2]: 46.4%

N#Cc1cccc(-c2cnc3[nH]cc(-c4cccnc4)c3c2)c1
Activity [3]: 83.4%
solubility [4]: 5.7 µM (≈ 1.69 µg/mL)
remaining at 48 h [5]: 98%
Activity [6]: 2.9%
Activity [2]: 17.4%
Activity [7]: 27.9%
IC50 [8]: 129 nM
solubility [9]: 7.2 µM (≈ 2.13 µg/mL)
Activity [10]: 35%
Activity [11]: 69.6%

Cc1cc(Nc2ccnc(N(C)c3ccccc3)n2)n[nH]1
Activity [2]: 89.8%

COC(=O)c1cccc(-c2cnc3[nH]cc(-c4cccc(OC)c4)c3c2)c1
Activity [3]: > 100%
solubility [4]: 2 µM (≈ 0.717 µg/mL)
Activity (Danio rerio): Non-Toxic
remaining at 48 h [5]: 97%
Activity [6]: 19.3%
Activity [2]: 12.4%
Activity [7]: 90%
IC50 [8]: 166 nM
solubility [9]: 1 µM (≈ 0.358 µg/mL)
Activity [10]: 94.1%
Activity [11]: > 100%

Cc1ccc(-c2c[nH]c3ncc(-c4cccc(C#N)c4)cc23)cc1
Activity [2]: 72.8%

Cc1ccc(CNc2nccc(Nc3cc(C)[nH]n3)n2)cc1
Activity [2]: 86.8%

Cc1cc(Nc2ccnc(NCc3ccc4c(c3)OCO4)n2)n[nH]1
Activity [2]: 97.2%

Cc1cc(Nc2ccnc(NCc3ccccc3)n2)n[nH]1
Activity [2]: 95.4%

N#Cc1cccc(-c2cnc3[nH]ccc3c2)c1
Activity [1]: 64.7%

c1ccc(Nc2nccc(Nc3cc(C4CC4)[nH]n3)n2)cc1
IC50 [8]: 850 nM
